Data set [1] can be described thus: Growth inhibition of human BJeLR cell by Trypan blue staining based analysis. The class given is toxicity. To be noted: BJeLR cells.
For data set [2], the target named is T1, Cystine/glutamate transporter (Homo sapiens, UniProt Q9UPY5).
T1 sequence (Q9UPY5 whole entry): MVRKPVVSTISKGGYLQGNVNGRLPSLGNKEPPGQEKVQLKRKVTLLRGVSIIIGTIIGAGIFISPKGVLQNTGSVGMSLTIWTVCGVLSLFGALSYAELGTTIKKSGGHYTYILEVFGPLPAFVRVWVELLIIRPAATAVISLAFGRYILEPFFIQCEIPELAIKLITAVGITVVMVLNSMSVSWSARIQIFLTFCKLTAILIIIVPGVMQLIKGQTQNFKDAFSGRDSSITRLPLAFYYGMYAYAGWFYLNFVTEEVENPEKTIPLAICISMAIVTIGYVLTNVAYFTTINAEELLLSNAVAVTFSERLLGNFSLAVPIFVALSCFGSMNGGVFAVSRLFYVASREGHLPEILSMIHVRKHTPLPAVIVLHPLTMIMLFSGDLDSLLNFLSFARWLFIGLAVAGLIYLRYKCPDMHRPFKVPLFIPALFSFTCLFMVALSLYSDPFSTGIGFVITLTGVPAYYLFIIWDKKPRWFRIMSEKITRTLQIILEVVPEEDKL
In words: Inhibition of Xc- in human HT-1080 cells assessed as decrease in glutamate release incubated for 2 hrs by Amplex red assay. The class given is cell-based.

One may read the GI50 as the concentration giving 50% growth inhibition. Low readings indicate more potent growth inhibition, high ones less potent growth inhibition. Compound `CC(C)Oc1ccc(CN2CCNCC2)cc1-n1c(CN2CCN(C(=O)COc3ccc(Cl)cc3)CC2)nc2ccccc2c1=O` had a GI50 in data set [1] of 0.9 nM.

Take `CC(C)Oc1ccc(C=O)cc1-n1c(CN2CCN(C(=O)COc3ccc(Cl)cc3)CC2)nc2ccccc2c1=O`: halving of growth in data set [1] (GI50) required 8 nM.

What is called IC50 is the concentration needed to halve the response being measured. Take `CC(C)Oc1ccc(C(=O)CN2CCOCC2)cc1-n1c(CN2CCN(C(=O)COc3ccc(Cl)cc3)CC2)nc2ccccc2c1=O`: the 50% growth inhibitory concentration (GI50) in data set [1] was determined as 427 nM. Moreover, the IC50 in data set [2] stood at 10 nM.

In the case of `CC(C)Oc1ccc(C(=O)CN2CCN(C)CC2)cc1-n1c(CN2CCN(C(=O)COc3ccc(Cl)cc3)CC2)nc2ccccc2c1=O`, halving of growth in data set [1] (GI50) required 474 nM. For the same compound, the IC50 in data set [2] was 300 nM.

In the case of `CC(C)Oc1ccncc1-n1c(CN2CCN(C(=O)COc3ccc(Cl)cc3)CC2)nc2ccccc2c1=O`, the GI50 in data set [1] is above 10 nM.

With `CCOc1ccccc1-n1c(C(C)N2CCN(C(=O)COc3ccc(Cl)cc3)CC2)nc2ccccc2c1=O` (centres undefined) [ERASTIN], the concentration for 50% growth inhibition (GI50) in data set [1] is 1.7 nM.

`CC(C)Oc1ccc(CN2CCOCC2)cc1-n1c(CN2CCN(C(=O)COc3ccc(Cl)cc3)CC2)nc2ccccc2c1=O` came in with a GI50 in data set [1] of 0.13 nM.

The values are drawn from ChEMBL document CHEMBL5550084, “Ferroptosis and its modulators: A raising target for cancer and Alzheimer's disease” (Bioorg Med Chem, 2024).
